Assay results published in patent publication US11420967B2 (priority 2018, dated 2022).
Read-outs that look alike come from different tables or passages of the source.

Columns and labels:
[1] = target: T1, tubulin (Sus scrofa, UniProt P02550+P02554); test: Tubulin polymerization with fluorescent tubulin (Cytoskeleton Inc.); assay type: biochemical
T1 construct: purchased Cytoskeleton Inc
Protocol: Real-time tubulin polymerization was measured by quantifying increase in fluorescent tubulin assembly in microtubule (RFU) as a function of time (minutes).
Dose-response curves that generated results in Table 5. Tubulin assembly was measured using fluoresent-rescent tubulin in 100 μl according to manufacturer's protocol (Cytoskeleton Inc.).

[2] = system: T98G cells; test: Antitumor activity in T98G cells in culture (WST-1 cell viability); assay type: cell-based, human; conditions: for Emax: read-out: maximal efficacy at killing T98G cells; for increase in EC50 value relative to compound 8: compared with 8 (87 nM)
Protocol: Unless otherwise noted, maximal efficacies were measured at 10 μM. Data are the mean of at least three independent experiments performed in triplicate.
Cell culture. Cells were cultured in DMEM supplemented with 10% FBS, 100 U/mL penicillin, and 100 μg/mL streptomycin at 37° C. in a 5% CO2 humidified atmosphere. T98G and HepG2 cells (ATCC, Manassas, Va.) were authenticated by ATCC when purchased using human short tandem repeat analysis and maintained in culture for less than 6 months. Tumors were obtained from surgeries performed at the Swedish Medical Center (Seattle, Wash.) according to Institutional Review Board guidelines. Patient samples used in this study were diagnosed as WHO grade IV glioblastoma multiforme. Patient-derived GBM cells were established from the freshly resected tumor tissues and maintained in NeuroCult® NSA medium (Stem Cell Technologies) with B-27 serum-free supplement, 20 ng/mL epidermal growth factor and 20 ng/mL fibroblast growth factor 2 as previously described.
Cell viability. […] Maximal % killing was calculated as the % reduction in cell viability measured at all drug concentration. EC50 values were calculated and reported only when a curve was reliably extrapolated by Prism software. The solvent for all modified carbazoles was DMSO (0.1% final).

[3] = system: NCI-60 cancer cell line panel; test: NCI-60 cancer cell line panel screen (percent growth inhibition); assay type: cell-based, human
Excerpt: FIG. 4 illustrates analysis of cell-killing activity of select compounds of the disclosure in NCI-60 cancer cell line panel. 8, 20, 27 and 23 (left panel) and taxol, thalipcarpine, and maytansine activity (right panel) in the NCI-60 cell lines.
This screening platform measures the antitumor activities of compounds expressed as percent growth inhibition, which differentiates the compound's activity at inhibiting cell proliferation and reducing cell number (i.e. killing cells). […] Two GBM cells lines included in the NCI-60 panel, SF-295 and SF-539, were among the top ten cell lines that were the most sensitive to 8, 20 and 27 treatments (FIG. 6). Their respective EC50 values of the compounds measured in these cells mirrored their EC50 values measured in T98G cells. Additional cell lines among the top ten cell lines that were sensitive to these three compounds were three cell lines of colon cancer origin: Colo205, HT-29 and HCC-2998 (FIG. 5).

[4] = target: T2, colchicine site of tubulin (purified tubulin) (Bos taurus, UniProt P81947+Q6B856); test: [3H]colchicine binding to purified tubulin; set-up: species or system bovine; conditions: read-out: Colchicine Binding % inhibition (mean ± SD) at 5 μM
T2 construct: from tissue; host or cells: native tubulin
T2 sequence (Q6B856 whole entry): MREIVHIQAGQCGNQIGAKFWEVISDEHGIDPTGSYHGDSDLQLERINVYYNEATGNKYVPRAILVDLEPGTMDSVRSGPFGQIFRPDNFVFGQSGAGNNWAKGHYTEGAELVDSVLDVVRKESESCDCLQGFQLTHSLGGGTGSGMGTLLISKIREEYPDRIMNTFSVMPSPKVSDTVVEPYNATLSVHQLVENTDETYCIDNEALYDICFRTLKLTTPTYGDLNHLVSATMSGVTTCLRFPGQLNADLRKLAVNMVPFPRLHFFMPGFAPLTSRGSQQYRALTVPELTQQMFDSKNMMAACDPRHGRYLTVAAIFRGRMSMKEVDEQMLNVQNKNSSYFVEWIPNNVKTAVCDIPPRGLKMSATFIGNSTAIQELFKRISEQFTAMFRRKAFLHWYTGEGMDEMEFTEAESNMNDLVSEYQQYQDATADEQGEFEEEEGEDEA
T2 sequence (P81947 whole entry): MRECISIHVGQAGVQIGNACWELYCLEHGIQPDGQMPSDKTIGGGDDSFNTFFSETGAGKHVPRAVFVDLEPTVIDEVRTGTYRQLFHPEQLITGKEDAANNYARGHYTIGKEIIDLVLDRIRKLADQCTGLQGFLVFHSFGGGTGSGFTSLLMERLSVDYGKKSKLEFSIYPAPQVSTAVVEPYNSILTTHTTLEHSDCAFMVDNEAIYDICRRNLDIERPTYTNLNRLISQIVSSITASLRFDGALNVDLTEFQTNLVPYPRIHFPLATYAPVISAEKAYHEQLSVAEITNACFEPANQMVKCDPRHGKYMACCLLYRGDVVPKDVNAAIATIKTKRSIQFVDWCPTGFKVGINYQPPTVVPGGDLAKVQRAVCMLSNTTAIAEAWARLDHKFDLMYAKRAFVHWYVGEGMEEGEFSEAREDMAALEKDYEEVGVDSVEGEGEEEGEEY
Protocol: (§1) Results are mean±SEM from n=4-5 independent experiments performed in triplicates. […] Results are from 3 independent experiments performed in duplicate.
First, it was determined whether compounds of the disclosure compete for [^3H]colchicine binding to native purified tubulin as previously described.
[^3H]Colchicine binding to purified tubulin and tubulin assembly. [^3H]Colchicine binding to purified tubulin and tubulin assembly (as assessed by turbidity development in purified bovine tubulin solutions) were both measured as previously described.

[5] = target: T3, sheared MTs / bovine brain tubulin (Bos taurus, UniProt P81947+Q6B856); test: MT-tubulin partitioning (free tubulin pelleting assay, gel quantification); assay type: biochemical
T3 construct: Bovine brain tubulin was purified, polymerized into MTs and sheared; from tissue; host or cells: bovine brain
T3 sequence (Q6B856 whole entry): as the sequence (Q6B856 whole entry) above
T3 sequence (P81947 whole entry): as the sequence (P81947 whole entry) above
Protocol: as §1
Next tested was their ability to inhibit the assembly of purified tubulin using an in vitro turbidity assay as previously described. […] In this assay, compounds are incubated with sheared MTs at 37° C. and the resulting amounts of tubulin dimers (free tubulin) and polymer (MT) after 15 min is measured on polyacrylamide gels.
MT-tubulin partitioning. Bovine brain tubulin was purified, polymerized into MTs and sheared as previously described. Sheared MTs and drugs were incubated at 37° C. for 15 min and centrifuged for 10 min at 42,000 rpm at 37° C. prior to separation into supernatants containing free tubulin and pellets containing polymerized MTs as previously described. […] Peak intensities were quantified using ImageJ.

[6] = target: T4, cannabinoid CB1 receptor (hCB1) (Homo sapiens, UniProt P21554); test: β-arrestin recruitment in hCB1-transfected HEK293 cells; assay type: cell-based; conditions: β-arrestin recruitment
T4 construct: expressed in transfected cells; host or cells: HEK293
T4 sequence (P21554 whole entry): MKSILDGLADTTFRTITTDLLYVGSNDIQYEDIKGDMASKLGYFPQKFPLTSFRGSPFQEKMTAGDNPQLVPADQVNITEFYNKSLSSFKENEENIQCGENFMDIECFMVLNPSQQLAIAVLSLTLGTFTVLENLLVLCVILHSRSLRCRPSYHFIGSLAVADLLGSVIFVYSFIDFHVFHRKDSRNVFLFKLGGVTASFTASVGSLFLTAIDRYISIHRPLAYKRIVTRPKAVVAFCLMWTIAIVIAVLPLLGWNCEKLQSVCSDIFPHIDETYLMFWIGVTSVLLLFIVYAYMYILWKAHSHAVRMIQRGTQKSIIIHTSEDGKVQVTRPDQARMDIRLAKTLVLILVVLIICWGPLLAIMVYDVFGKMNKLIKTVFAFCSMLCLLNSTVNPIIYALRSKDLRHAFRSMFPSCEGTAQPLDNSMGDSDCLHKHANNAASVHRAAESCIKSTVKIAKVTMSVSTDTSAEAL

[7] = target: T5, cannabinoid CB2 receptor (hCB2) (Homo sapiens, UniProt P34972); test: β-arrestin recruitment in hCB2-transfected HEK293 cells; assay type: cell-based
T5 construct: expressed in transfected cells; host or cells: HEK293
T5 sequence (P34972 whole entry): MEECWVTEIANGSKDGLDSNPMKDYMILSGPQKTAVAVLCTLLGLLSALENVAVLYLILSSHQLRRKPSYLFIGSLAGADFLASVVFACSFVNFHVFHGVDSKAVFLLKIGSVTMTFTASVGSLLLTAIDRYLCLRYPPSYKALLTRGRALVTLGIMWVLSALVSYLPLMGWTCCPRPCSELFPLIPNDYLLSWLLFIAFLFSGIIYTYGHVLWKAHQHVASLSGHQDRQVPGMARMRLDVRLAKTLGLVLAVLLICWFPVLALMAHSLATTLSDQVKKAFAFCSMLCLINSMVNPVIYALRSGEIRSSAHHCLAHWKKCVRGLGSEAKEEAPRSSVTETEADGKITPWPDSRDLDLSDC

[8] = Homo sapiens, T98G cells, WST-1, 72 hours after treatment, read-out: EC50
[9] = Homo sapiens, T98G cells, rounded values of the discussion
[10] = Homo sapiens, T98G, T98G cells, rounded values of the discussion

T1 sequence (P02554 whole entry): as the sequence (Q6B856 whole entry) above, with T55A, M170V, S296A, I316V, E440G, G441E counted along it
T1 sequence (P02550 whole entry): as the sequence (P81947 whole entry) above, with L136S, S232G, I265A, S340T, Q358E counted along it

SMILES: CCn1c2ccccc2c2cc(C(O)c3cccc4ncccc34)ccc21 (single isomer, unassigned; (+)) [(+)-19, (+)-(9-ethyl-9H-carbazol-3-yl)(quinolin-5-yl)methanol]
- IC50 ([1]; fluorescent tubulin, 100 μl): 0.64 µM

SMILES: CCn1c2ccccc2c2cc(C(=O)N3CCN(C)CC3)ccc21 [Compound 9, 9-ethyl-3-(4-methylpiperazine-1-carbonyl)-9H-carbazole]
- EC50 [2, 8]: > 10 µM
- antitumor activity in T98G cells (in words) ([2]; T98G cells): only active at concentrations above five micromolar
- effect on T98G cell viability (in words) ([2]; T98G cells): did not affect T98G cell viability significantly
- maximal killing (% ± SEM) ([2]; T98G cells, at 10 μM, 72 hours): 13.2%

SMILES: CCn1c2ccccc2c2cc(C(=O)c3ccc(Cl)cc3)ccc21 [Compound 10, 3-(4-chlorobenzoyl)-9-ethyl-9H-carbazole]
- EC50 [2, 8]: 1.5 µM
- Emax [2, 9]: 61%
- maximal killing (% ± SEM) ([2]; T98G cells, at 10 μM, 72 hours): 71.1%

SMILES: CCn1c2ccccc2c2cc(C(=O)c3ccc(F)cc3)ccc21 [Compound 11, 9-ethyl-3-(4-fluorobenzoyl)-9H-carbazole]
- EC50 [2, 8]: 8 µM
- Emax [2, 9]: 55%
- maximal killing (% ± SEM) ([2]; T98G cells, at 10 μM, 72 hours): 54.8%

SMILES: CCn1c2ccccc2c2cc(C(=O)c3ccc(C)cc3)ccc21 [Compound 12, 9-ethyl-3-(4-methylbenzoyl)-9H-carbazole]
- EC50 [2, 8]: 0.993 µM
- Emax [2, 9]: 84%
- maximal killing (% ± SEM) ([2]; T98G cells, at 3 μM, 72 hours): 83.6%
- increase in EC50 value relative to compound 8 ([2]; T98G cells): 11 fold

SMILES: CCn1c2ccccc2c2cc(C(=O)Cc3ccccc3)ccc21 [Compound 13, 1-(9-ethyl-9H-carbazol-3-yl)-2-phenylethan-1-one]
- EC50 [2, 8]: > 10 µM
- antitumor activity in T98G cells (in words) ([2]; T98G cells): only active at concentrations above five micromolar
- effect on T98G cell viability (in words) ([2]; T98G cells): did not affect T98G cell viability significantly
- maximal killing (% ± SEM) ([2]; T98G cells, at 3 μM, 72 hours): 14.0%
- increase in EC50 value relative to compound 8 ([2]; T98G cells): more than 115 fold

SMILES: CCn1c2ccccc2c2cc(C(=O)c3cccc4ccccc34)ccc21 [Compound 14, 9-ethyl-3-(naphthalene-1-carbonyl)-9H-carbazole]
- Emax [2, 10]: 72%
- EC50 [2, 8]: 1.7 µM
- maximal killing (% ± SEM) ([2]; T98G cells, at 10 μM, 72 hours): 72.0%
- increase in EC50 value relative to compound 8 ([2]; T98G cells): 20 fold

SMILES: CCCn1c2ccccc2c2cc(C(=O)c3ccc(C)c4ccccc34)ccc21 [Compound 16, 9-propyl-3-[(4-methylnaphthalen-1-yl)carbonyl]-9H-carbazole]
- EC50 [2, 8]: > 10 µM
- antitumor activity in T98G cells (in words) ([2]; T98G cells): only active at concentrations above five micromolar
- effect on T98G cell viability (in words) ([2]; T98G cells): did not affect T98G cell viability significantly
- maximal killing (% ± SEM) ([2]; T98G cells, at 10 μM, 72 hours): 16.3%
- increase in EC50 value relative to compound 8 ([2]; T98G cells): 115 fold

SMILES: Cc1ccc(C(=O)c2ccc3c(c2)c2ccccc2n3CC(F)(F)F)c2ccccc12 [Compound 18, 3-(4-methylnaphthalene-1-carbonyl)-9-(2,2,2-trifluoroethyl)-9H-carbazole]
- Emax [2, 10]: 35 to 45%
- EC50 [2, 8]: 5.6 µM
- antitumor activity in T98G cells (in words) ([2]; T98G cells): only active at concentrations above five micromolar
- maximal killing (% ± SEM) ([2]; T98G cells, at 10 μM, 72 hours): 35.6%
- increase in EC50 value relative to compound 8 ([2]; T98G cells): 64 fold
- maximal efficacy at killing T98G cells ([2]; T98G cells, rounded values of the discussion): 35%

SMILES: CCn1c2ccccc2c2cc(C(=O)c3cccc4cccnc34)ccc21 [Compound 22, 9-ethyl-3-(quinoline-8-carbonyl)-9H-carbazole]
- reduction of maximal antitumor efficacy relative to compound 25 [2]: 96%
- EC50 [2, 8]: 8.8 µM
- Emax [2, 9]: 60%
- maximal killing (% ± SEM) ([2]; T98G cells, at 10 μM, 72 hours): 60.0%

SMILES: CCn1c2ccccc2c2cc(C(=O)c3cccc4c3CCCN4)ccc21 [Compound 23, (9-ethyl-9H-carbazol-3-yl)(1,2,3,4-tetrahydroquinolin-5-yl)methanone]
- EC50 [2, 8]: > 10 µM
- antitumor activity in T98G cells (in words) ([2]; T98G cells): only active at concentrations above five micromolar
- effect on T98G cell viability (in words) ([2]; T98G cells): did not affect T98G cell viability significantly
- maximal killing (% ± SEM) ([2]; T98G cells, at 3 μM, 72 hours): −17.0%
- viability at 10 µM ([3]; Homo sapiens, 48 h, read-out: growth inhibition: mean): 102%
- effect on proliferation and viability of NCI-60 cell lines (in words) ([3]; NCI-60, 10 μM, 48 hours): did not significantly affect the proliferation and viability of any of the cell lines
- inhibition at 5 µM [4]: 4 ± 1%
- IC50 ([5]; MT-Tubulin Partitioning IC50 (μM) (mean), sheared MTs at 37° C., 15 min): > 20 µM
- effect on MT assembly/disassembly, MT-free tubulin partitioning (in words) ([5]; free tubulin pelleting assay): does not affect MT assembly
- Agonist efficacy (% activation) CB1 [6]: −2 % activation
- Antagonist efficacy (% activation) CB1 [6]: 16 % activation
- EC50 ([6]; antagonist mode, read-out: Antagonist CB1, value in parentheses (EC50)): 0.183 µM
- EC50 [7]: 0.067 µM
- Agonist efficacy (% activation) CB2 ([7]; β-arrestin recruitment): 2 % activation
- Antagonist efficacy (% activation) CB2 ([7]; β-arrestin recruitment): 20 % activation

SMILES: CCn1c2ccccc2c2cc(C(=O)c3cccc4c3NCCC4)ccc21 [Compound 24, 9-ethyl-3-(1,2,3,4-tetrahydroquinoline-8-carbonyl)-9H-carbazole]
- EC50 [2, 8]: > 10 µM
- antitumor activity in T98G cells (in words) ([2]; T98G cells): only active at concentrations above five micromolar
- effect on T98G cell viability (in words) ([2]; T98G cells): did not affect T98G cell viability significantly
- maximal killing (% ± SEM) ([2]; T98G cells, at 100 nM, 72 hours): −18.0%

SMILES: Cc1ccc(C(=O)n2c3ccccc3c3ccccc32)c2ccccc12 [Compound 28, 9-(4-methylnaphthalene-1-carbonyl)-9H-carbazole]
- EC50 [2, 8]: 0.957 µM
- Emax [2, 9]: 89%
- maximal killing (% ± SEM) ([2]; T98G cells, at 10 μM, 72 hours): 89.1%

SMILES: COc1ccc(/C=C\c2cc(OC)c(OC)c(OC)c2)cc1O [combretastatin A-4, reference compound]
- EC50 ([2]; T98G cells, WST-1, 72 hours after treatment, read-out: EC50): 0.0006 µM
- maximal killing ([2]; T98G cells, at 10 nM, 72 hours): 30.4%±2.1

SMILES: CC(=O)O[C@H]1C(=O)[C@@]2(C)[C@H]([C@H](OC(=O)c3ccccc3)[C@]3(O)C[C@H](OC(=O)[C@H](O)[C@@H](NC(=O)c4ccccc4)c4ccccc4)C(C)=C1C3(C)C)[C@]1(OC(C)=O)CO[C@@H]1C[C@@H]2O [paclitaxel, reference compound]
- maximal killing [2]: 63.2%±2.5
- EC50 ([2]; Homo sapiens, T98G, 72 h): 148 µM
- effect on MT in real-time tubulin polymerization (in words) ([1]; Paclitaxel 10 μM, 19 1 μM): stabilizes MT

SMILES: CCCCCCC(C)(C)c1ccc([C@@H]2C[C@H](O)CC[C@H]2CCCO)c(O)c1 [positive control, CP55940, reference compound]
- Agonist efficacy (% activation) CB1 [6]: 1940 % activation
- Antagonist efficacy (% activation) CB1 [6]: 97 % activation
- Antagonist efficacy (% activation) CB2 ([7]; β-arrestin recruitment): 92 % activation
